# Results from patent US20250387410A1, “TREATMENT OF ANTI-VEGF REFRACTORY OPHTHALMIC RETINAL EYE CONDITIONS” (Eye Co Pty Ltd., priority 2022, published 2025).
# “Also recorded” adds a separate entry of the source.
# Tests used:
# 661W cells = assay: MTT assay, cell viability of 661W cells; format: cell-based, human
# Source text: The immortalised retinal cells used were as follows: MIO-M1 cells (Muller cell-derived; Müller 1 Moorefields, Institute of Ophthalmology, Dr A. Limb, Institute of Ophthalmology, University College, UK); ARPE19 (RPE-derived; ATCC CRL-2302, American Tissue Culture Collection, VA, USA); and 661W cells (photoreceptor-like derived; kindly gifted by Dr Muayyad R. Al-Ubaidi, Department of Cell Biology, University of Oklahoma Health Sciences Centre, Oklahoma City, OK, USA). Cells were authenticated and validated from Cell Bank Australia.
# The immortalised retinal cell lines MIO-M1, 661W and ARPE19 were used to undertake the MTT assay to assess cell metabolic activity, based on the cell's availability of NAPDH. Treatments included exposure to one of FA (10-0.01 μg/μl, provided by Professor Ben Boyd, Monash University, Australia), TA (10-0.01 μg/p, Honeywell, USA) and Dexamethasone (10-0.0001 μg/μl, Sigma-Aldrich, MO, USA). All corticosteroids used in vitro were dissolved in 20% dimethyl sulfoxide (DMSO) (Sigma-Aldrich, MO, USA) and ultrapure endotoxin 0.1M PBS (Thermo Fisher Scientific, MA, USA). At the 12-hour time point following addition of the corticosteroid, 10p of MTT reagent (Roche, Switzerland) was added to each well. To protect against light, plates were wrapped in foil and stored in the dark at 37° C. for 4 hours at 5.0% CO2. Cells were monitored using a bright field Zeiss Axiovert 200 inverted microscope (Carl Zeiss Meditec, Dublin, CA. USA) for formation of insoluble purple formazan precipitate crystals in viable cells. Subsequently 100p of MTT solubilisation solution was added and once again incubated in darkness at 37° C., 5.0% CO2 for 24 hours. Quantification of the MTT assay was performed by measuring the absorbance at 570 nm using Tecan Infinite® 200 PRO (Tecan, Mannedorf, Switzerland).
# [1] = tested on: Il-1b-stimulated MIO-M1 cells; assay: Co-incubation with selective receptor antagonists in Il-1b-stimulated MIO-M1 cells; format: cell-based, human; settings: stimulated Muller (MIO-M1) cells, receptor blockers
# Procedure: FIG. 3 Contribution of glucocorticoid and mineralocorticoid receptor signalling to the anti-inflammatory effect of FA in vitro.
# IL-1β and TNF-α were administered to MIO-M1 cells to initiate an inflammatory response in order to test the anti-inflammatory properties of the selected corticosteroids. MIO-M1 cells were grown to a cell density of 50,000 cells per well in a 24 well plate using growth media and foetal bovine serum as described (Section 2.1.1). MIO-M1 cells were challenged with either 1 ng/μl of IL-1β or TNF-α (R&D Systems, MN, USA). Experimental wells were treated with either 1 μg/μl FA, TA or Dexamethasone. Twelve hours post addition, growth medium was removed from each well and replaced with 860 μl of TRIzol (Thermo Fisher Scientific, MA, USA), agitated approximately 20 times and then placed in a clean 1.5 ml Eppendorf tube to extract ribonucleic acid (RNA).
# Following purification of RNA, cDNA was synthesized using the Bioline Tetro kit (Bioline, Australia) as per the manufacturer's instructions. Quantitative Real Time Polymerase Chain Reaction (QRT-PCR) was undertaken to profile gene expression changes in animal and cell culture samples. TaqMan hydrolysis probes (Applied Biosystems, USA) and Gene Expression Master Mix (Applied Biosystems, USA) were used. A clear 384 well plate (Applied Biosystems, USA) was used with each biological sample plated in duplicate. A reaction mixture per sample was set up and included 0.5 μl cDNA, 4 μl Rnase Free Water, 5 μl Gene Expression Master Mix and 0.5 μl Taqman Primer Probe (Thermo Fisher Scientific), as listed in Table 2.5. The amplification of each sample was undertaken using a QuantStudio 12K Flex QRT-PCR machine (Applied Biosystems, USA). GAPDH was used as the reference gene using the comparative cycle threshold (Ct) method (ΔΔCt), as it is known not to change expression following retinal photo-oxidative damage. Data was analysed using the QuantStudio 12K Flex Software (Applied Biosystems, USA).
# [2] = tested on: C57BL/6J mice, photo-oxidative damage (PD); assay: Photo-oxidative damage (PD) model of retinal degeneration, intravitreal injection; format: in vivo, mouse; settings: for ONL thickness (OCT): 1-2 mm and 2-3 mm from the optic nerve, about 1 mg/ml in vitreous; for ONL thickness (OCT) / a-wave and b-wave ERG responses: versus controls; for a-wave and b-wave ERG responses: scotopic; for IBA1+ macrophages in the outer retina: versus control
# Source text: All experiments conducted were in accordance with the ARVO Statement for Use of Animals in Ophthalmic and Vision Research, and with approval from the ANU Animal Experimentation Ethics Committee (AEEC, protocol #A2014/56). C57BL/6J mice aged 60 post-natal days were used in this study. Animals were born, reared and held under dim light conditions (5 lux) prior to photo-oxidative damage.
# In vivo cross-sectional and fundus images of the mouse retina were acquired using Optical Coherence Tomography (OCT).
# Intravitreal injections were performed on C57BL/6J mice aged 60 post-natal days. Treatments included exposure to FA or TA dissolved in Suspension (comprised of 0.5% w/v carboxymethyl cellulose and 0.4% v/v Tween 80). The final concentration of drug in the vitreous chamber is estimated to be as 1 mg/ml.
# Age-matched C57BL/6J mice (60 post-natal days) were exposed to continuous 100K lux white LED light for 5 days with access to food and water ad libitum. During this time, 1% atropine sulphate (Minims 1% atropine sulphate eye drops; Bausch and Lomb, USA) was administered to both eyes twice daily to dilate the pupils. Animals were subsequently euthanised with carbon dioxide (CO2).
# Electroretinography (ERG) was used to assess the retinal function response of rodents to full-field flash stimuli under scotopic conditions. Dim-reared control and photo-oxidative damaged animals were used, using known methods.
# Animals were dark-adapted overnight before the commencement of ERG experiments. Animals were anaesthetised as previously described, and all retinal recordings were undertaken in a dark room with minimal red light source.
# Terminal deoxynucleotidyl transferase (Tdt) dUTP nick end labelling (TUNEL) is an established technique used to detect apoptotic and necrotic cells.
# The retina was evenly divided into 8 quadrants. Each quadrant was viewed using a confocal microscope (LSM 5, Zeiss, Germany) and TUNEL^+ and IBA1^+ cells were identified and counted. Data were graphed and analysed using Prism 6 software (GraphPad Software, CA, USA).
# [3] = 5 days PD, intravitreal, listed as Suspension+FA
smiles,measurement,setting,value
"CC(=O)OCC(=O)[C@@]1(O)CC[C@H]2[C@@H]3CCC4=CC(=O)CC[C@]4(C)[C@@]3(F)[C@@H](O)C[C@@]21C [FA, 9-α-Fluoro-11 β. 17 α, 21-trihydroxy-4-pregnene-3, 20 dione acetate]",viability of 661W cells at 1 μg/μl,661W cells; 1 μg/μl,does not significantly alter cell viability
same,viability of 661W cells (MTT assay),"661W cells; 10-0.01 μg/μl, 12 h, compared to DMSO-only group",do not induce toxicity; also recorded: no significant effect
same,"receptor mediating the impact on expression of CCL2, IL-6 and IL-8",[1],mediated through the glucocorticoid receptor; also recorded: dependent on glucocorticoid receptor signalling
same,ONL thickness (OCT),"[2]; 5 days PD, intravitreal",significant preservation
same,ONL thickness (OCT),[2]; [3],significantly greater
same,a-wave and b-wave ERG responses,"[2]; 5 days PD, intravitreal",significantly larger
same,a-wave and b-wave ERG responses,[2]; [3],significantly higher
same,IBA1+ macrophages in the outer retina,"[2]; 5 days PD, intravitreal",significant reduction
same,IBA1+ macrophages in the outer retina,[2]; [3],significant decrease
same,TUNEL+ photoreceptors (outer retina),"[2]; 5 days PD, intravitreal, versus vehicle/controls",significantly fewer
same,photoreceptor survival in PD,"[2]; intravitreal injection, mice",improves photoreceptor survival
